According to patent US20230293517A1, “ANTAGONIST COMPOUNDS” (AdoRx Therapeutics Limited, priority 2020, published 2023):
Where two headings read alike, the source gives them in different places.

Assays:
[1] = tested on: immature monocyte-derived dendritic cells (MoDC); assay: MoDC pCREB assay; type: cell-based, human; details: pCREB in immature MoDC, 1 μM NECA, rolipram
Method: Monocytes are isolated from human whole blood using CD14 microbeads (Miltenyi Biotec 130-050-201) and differentiated to immature monocyte-derived dendritic cells (MoDC) by culture for 5 days in Mo-DC Differentiation Medium (Miltenyi Biotec 130-094-812). MoDCs are seeded into fresh medium into U bottomed 96 well culture plates and pre-incubated at 37° C. with serial dilutions of A2A/B antagonists for 15 min. At the same time the cells are co-incubated with the phosphodiesterase inhibitor rolipram (final concentration of 20 µM) to amplify the subsequent pCREB response. Adenosine receptor agonist NECA is then added at 1 μM final concentration, leading to an increase in CREB phosphorylation. Following a 45 min incubation at 37° C., the cells are fixed, permeabilized and stained with directly conjugated fluorescent antibodies to phospho-CREB (Alexa Fluor 488), CD209 (PerCP-Cy5.5) and CD86 (APC). Samples are analysed by FACS to measure fluorescence in corresponding channels, and also forward and Side scatter. The population of CD209+/CD86− low cells corresponding to immature dendritic cells is gated for analysis of pCREB levels.
Approximately 5% of the analysed cells are positive for detection of pCREB in the absence of agonist stimulation, representing the background signalling of all pathways upstream of CREB. Following NECA stimulation this is increased to ˜80% pCREB+ve, and this increase is essentially fully reversible by A2B or dual A2A/B antagonists.
IC50 is represented as the point of inflection of a sigmoidal curve

[2] = biological target: human Adenosine A2a receptor (Homo sapiens (Human), UniProt P29274); assay: Adenosine receptor TR-FRET binding assay (A2a); details: inhibition of binding of 100 nM CA200645, CHO cell membranes
In short: (§1)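 In this homogeneous assay, test compounds compete with tracer CA200645 for Tb-labelled human adenosine receptors expressed in CHO cell membranes over 2 h at room temperature. Tracer levels differ by subtype: 30 nM for A2b, 100 nM for A1, A2a and A3. Specific FRET signal yields IC50, converted to Ki.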

[3] = biological target: human Adenosine A3 receptor (Homo sapiens (Human), UniProt P0DMS8); assay: Adenosine receptor TR-FRET binding assay (A3); details: inhibition of binding of 100 nM CA200645, CHO cell membranes
In short: as §1

[4] = biological target: human Adenosine A2b receptor (Homo sapiens (Human), UniProt P29275); assay: Adenosine receptor TR-FRET binding assay (A2b)
In short: as §1

[5] = tested on: CD8+T cells in human whole blood; assay: Measurement of pCREB in CD8+T cells in human whole blood; type: cell-based; details: 3 μM NECA, rolipram
In short: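 Heparinised human whole blood pre-incubated 20 min at 37 °C with serially diluted A2a antagonists plus rolipram, then stimulated 60 min with 3 μM NECA (final). After fixation and red-cell lysis, white cells were permeabilized and stained for phospho-CREB and CD8; pCREB in CD8+ T cells measured by flow cytometry.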

[6] = biological target: human Adenosine A1 receptor (Homo sapiens (Human), UniProt P30542); assay: Adenosine receptor TR-FRET binding assay (A1); details: inhibition of binding of 100 nM CA200645, CHO cell membranes
In short: as §1

[7] = tested on: human PBMCs; assay: CD3/CD28 stimulated IL-2 release NECA reversal assay in human PBMCs; type: cell-based; details: PBMC, 1 uM NECA, 24 hours, IL-2 in culture supernatant
In short: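 PBMCs from citrated healthy-donor blood plated at 50,000 cells/well on 1 ug/ml CD3 antibody with 1 ug/ml CD28 antibody, 1 uM NECA and 0.003-10 μM antagonist (final), 24 h at 37° C. Supernatant IL-2 measured by MSD immunoassay; % inhibition set against no-NECA control wells as 100%.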

[8] = TR-FRET, inhibition of binding of 30 nM CA200645, CHO cell membranes

Chain of human Adenosine A3 receptor (P0DMS8 whole entry): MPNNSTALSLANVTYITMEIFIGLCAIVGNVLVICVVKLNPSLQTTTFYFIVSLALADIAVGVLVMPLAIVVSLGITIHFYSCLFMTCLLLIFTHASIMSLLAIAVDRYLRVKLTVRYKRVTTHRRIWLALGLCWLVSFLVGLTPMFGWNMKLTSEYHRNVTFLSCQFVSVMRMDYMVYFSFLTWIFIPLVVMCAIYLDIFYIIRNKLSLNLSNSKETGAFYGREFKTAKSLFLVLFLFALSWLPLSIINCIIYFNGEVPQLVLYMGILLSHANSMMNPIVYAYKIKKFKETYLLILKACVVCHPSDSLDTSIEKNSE
Chain of human Adenosine A1 receptor (P30542 whole entry): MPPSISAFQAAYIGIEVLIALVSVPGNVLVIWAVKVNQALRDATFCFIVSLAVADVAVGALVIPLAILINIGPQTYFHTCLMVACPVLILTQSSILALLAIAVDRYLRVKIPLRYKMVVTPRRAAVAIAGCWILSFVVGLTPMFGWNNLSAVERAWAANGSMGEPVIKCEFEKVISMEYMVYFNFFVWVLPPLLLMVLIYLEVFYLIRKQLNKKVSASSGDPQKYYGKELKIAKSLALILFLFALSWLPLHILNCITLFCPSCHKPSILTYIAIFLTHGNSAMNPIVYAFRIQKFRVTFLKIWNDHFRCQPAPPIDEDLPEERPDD
Chain of human Adenosine A2b receptor (P29275 whole entry): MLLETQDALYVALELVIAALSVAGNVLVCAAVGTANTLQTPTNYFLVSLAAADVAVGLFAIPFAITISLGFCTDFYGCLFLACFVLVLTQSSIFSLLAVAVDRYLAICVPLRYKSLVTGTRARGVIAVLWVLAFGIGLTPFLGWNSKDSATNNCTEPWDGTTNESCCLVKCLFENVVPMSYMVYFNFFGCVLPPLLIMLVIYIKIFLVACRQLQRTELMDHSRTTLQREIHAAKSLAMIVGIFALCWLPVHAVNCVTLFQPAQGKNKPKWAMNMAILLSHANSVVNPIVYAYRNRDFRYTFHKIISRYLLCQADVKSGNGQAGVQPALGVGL
Chain of human Adenosine A2a receptor (P29274 whole entry): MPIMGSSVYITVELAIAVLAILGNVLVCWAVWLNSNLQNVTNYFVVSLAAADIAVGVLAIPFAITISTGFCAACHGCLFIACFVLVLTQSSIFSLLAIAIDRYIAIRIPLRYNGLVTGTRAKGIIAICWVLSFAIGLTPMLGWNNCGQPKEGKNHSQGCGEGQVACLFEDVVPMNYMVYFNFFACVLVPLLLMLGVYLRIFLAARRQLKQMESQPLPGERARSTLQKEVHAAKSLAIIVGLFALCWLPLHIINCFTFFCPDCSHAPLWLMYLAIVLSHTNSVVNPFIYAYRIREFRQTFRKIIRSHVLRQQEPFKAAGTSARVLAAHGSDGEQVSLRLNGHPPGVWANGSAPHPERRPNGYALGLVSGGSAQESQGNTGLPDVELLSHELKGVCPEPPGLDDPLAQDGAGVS

| IC50 ([1]; Homo sapiens, Dendritic cell) [nM] | Ki [2] [nM] | Ki [3] [nM] | Ki [4] [nM] | IC50 [5] [nM] | Ki [6] [nM] | Ki [4, 8] [nM] | IC50 [1] [nM] | SMILES | IC50 [7] [nM] |
| --- | --- | --- | --- | --- | --- | --- | --- | --- | --- |
| 72 | 0.91 | 819 | 7 | 50 |  |  |  | Cc1cc(-c2sc(NC(=O)N3C[C@@H]4OCCN(C)[C@@H]4C3)nc2-c2cccc(C#N)c2)cc(C)n1 (racemic) [Example 6.98, rac-(4aR,7aS)-N-[4-(3-Cyanophenyl)-5-(2,6-dimethyl-4-pyridyl)thiazol-2-yl]-4-methyl-2,3,4a,5,7,7a-hexahydropyrrolo[3,4-b][1,4]oxazine-6-carboxamide] |  |
| 31 | 0.44 | 1810 |  | 20 | 27 | 5 |  | Cc1cc(-c2sc(NC(=O)N3CC4(COC4)C3)nc2-c2cccc(C#N)c2)cc(C(C)O)n1 (racemic) [Example 12.3, N-[4-(3-Cyanophenyl)-5-[2-(1-hydroxyethyl)-6-methyl-4-pyridyl]thiazol-2-yl]-2-oxa-6-azaspiro[3.3]heptane-6-carboxamide] |  |
|  | 0.18 | 1090 |  | 10 | 23 | 2.6 | 16 | Cc1cc(-c2sc(NC(=O)N3CC4(COC4)C3)nc2-c2cccc(C#N)c2)cc([C@@H](C)O)n1 (single isomer, unassigned) [Example 12.3a, N-[4-(3-Cyanophenyl)-5-[2-[(1R)-1-hydroxyethyl]-6-methyl-4-pyridyl]thiazol-2-yl]-2-oxa-6-azaspiro[3.3]heptane-6-carboxamide or N-[4-(3-cyanophenyl)-5-[2-[(1S)-1-hydroxyethyl]-6-methyl-4-pyridyl]thiazol-2-yl]-2-oxa-6-azaspiro[3.3]heptane-6-carboxamide] |  |
| 28 | 1.28 | 166 |  |  | 24 | 0.9 |  | Cc1cc(-c2sc(NC(=O)N3CCC(S(N)(=O)=O)C3)nc2-c2cccc(C#N)c2)cc(C)n1 (stereo not drawn) [Example 6.2, N-[4-(3-Cyanophenyl)-5-(2,6-dimethyl-4-pyridyl)thiazol-2-yl]-3-sulfamoyl-pyrrolidine-1-carboxamide] |  |
| 13 | 0.23 | 250 |  | 50 | 17 | 1.1 |  | Cc1cc(-c2sc(NC(=O)N3CC4(COC4)C3)nc2-c2cccc(C#N)c2)cc(C(F)F)n1 [Example 6.97, N-[4-(3-Cyanophenyl)-5-[2-(difluoromethyl)-6-methyl-4-pyridyl]thiazol-2-yl]-2-oxa-6-azaspiro[3.3]heptane-6-carboxamide] |  |
| 10 | 0.16 | 549 |  |  | 25 | 0.6 |  | Cc1cc(-c2sc(NC(=O)N3CC4(COC4)C3)nc2-c2cccc(C#N)c2)cc(Cl)n1 [Example 6.100, N-[5-(2-Chloro-6-methyl-4-pyridyl)-4-(3-cyanophenyl)thiazol-2-yl]-2-oxa-6-azaspiro[3.3]heptane-6-carboxamide] |  |
| 12 | 0.2 | 564 |  |  | 31 | 1 |  | [2H]C([2H])([2H])c1cc(-c2sc(NC(=O)N3CC4(COC4)C3)nc2-c2cccc(C#N)c2)cc(C([2H])([2H])[2H])n1 [Example 6.104, N-[5-[2,6-Bis(trideuteriomethyl)-4-pyridyl]-4-(3-cyanophenyl)thiazol-2-yl]-2-oxa-6-azaspiro[3.3]heptane-6-carboxamide] |  |
| 4 | 1.27 | 368 |  |  | 71 | 1.3 |  | Cc1cc(-c2sc(NC(=O)N3CC4(COC4)C3)nc2-c2cccc(C#N)c2)c(F)c(C)n1 [Example 6.105, N-[4-(3-Cyanophenyl)-5-(3-fluoro-2,6-dimethyl-4-pyridyl)thiazol-2-yl]-2-oxa-6-azaspiro[3.3]heptane-6-carboxamide] |  |
| 62 | 0.59 | 145 |  |  | 34 | 0.9 |  | Cc1cc(-c2sc(NC(=O)N3CCC4(CNCCO4)C3)nc2-c2cccc(C#N)c2)cc(C(F)F)n1 (stereo not drawn) [Example 6.108, N-[4-(3-Cyanophenyl)-5-[2-(difluoromethyl)-6-methyl-4-pyridyl]thiazol-2-yl]-6-oxa-2,9-diazaspiro[4.5]decane-2-carboxamide] |  |
|  | 0.99 | 418 |  | 650 | 47 | 7.6 |  | Cc1cc(-c2sc(NC(=O)N3CCN[C@H](C)C3)nc2-c2cccc(C#N)c2)cc(C)n1 [Example 7.1, (3R)—N-[4-(3-Cyanophenyl)-5-(2,6-dimethyl-4-pyridyl)thiazol-2-yl]-3-methyl-piperazine-1-carboxamide] | 20.5 |
|  | 0.79 | 772 |  | 20 | 102 | 5.3 |  | Cc1cc(-c2sc(NC(=O)N3CC[C@@H](C(C)(C)O)C3)nc2-c2cccc(C#N)c2)cc(CO)n1 [Example 9.2] | 2.7 |
|  | 0.42 | 742 |  | 10 | 68 | 3.2 |  | Cc1cc(-c2sc(NC(=O)N3CCC(C#N)(CO)CC3)nc2-c2cccc(C#N)c2)cc(CO)n1 [Example 9.7] | 1 |
|  | 0.31 | 491 |  | 20 | 48 | 3.1 |  | COC1(C#N)CCN(C(=O)Nc2nc(-c3cccc(C#N)c3)c(-c3cc(C)nc(CO)c3)s2)CC1 [Example 9.9] | 1.3 |
|  | 1.19 | 283 |  | 1060 | 43 | 1.4 |  | Cc1cc(-c2sc(NC(=O)N3CC[S+]([O-])CC3)nc2-c2cccc(C#N)c2)c(F)c(C)n1 [Example 10, N-[4-(3-Cyanophenyl)-5-(3-fluoro-2,6-dimethyl-4-pyridyl)thiazol-2-yl]-1-oxo-1,4-thiazinane-4-carboxamide] | 24.7 |
|  | 0.62 | 515 |  | 1130 | 51 | 1.3 |  | Cc1cc(-c2sc(NC(=O)N3CCS(=O)(=NC#N)CC3)nc2-c2cccc(C#N)c2)cc(C)n1 [Example 11, 1-Cyanoimino-N-[4-(3-cyanophenyl)-5-(2,6-dimethyl-4-pyridyl)thiazol-2-yl]-1-oxo-1,4-thiazinane-4-carboxamide] | 10.5 |
| 73 | 0.16 | 930 |  |  | 6 | 3.1 |  | Cc1cc(-c2sc(NC(=O)N3CCC(C)(C#N)CC3)nc2-c2cccc(C#N)c2)cc(C(C)(C)O)n1 [Example 12, 4-Cyano-N-[4-(3-cyanophenyl)-5-[2-(1-hydroxy-1-methyl-ethyl)-6-methyl-4-pyridyl]thiazol-2-yl]-4-methyl-piperidine-1-carboxamide] |  |
|  | 0.29 | 257 |  | 120 | 22 | 2.2 |  | Cc1cc(-c2sc(NC(=O)N3CCS(=N)(=O)CC3)nc2-c2cccc(C#N)c2)cc(C(F)F)n1 [Example 16.1] | 6.7 |
| 36 | 0.13 | 1710 |  |  | 12 | 3.3 |  | Cc1cc(-c2sc(NC(=O)N3CC4(COC4)C3)nc2-c2cccc(C#N)c2)cc(C2COC2)n1 [Example 16.4] |  |
| 18 | 0.1 | 350 |  |  | 9 | 0.8 |  | CCc1cc(-c2sc(NC(=O)N3CC4(COC4)C3)nc2-c2cccc(C#N)c2)cc(C)n1 [Example 16.9] |  |
|  | 0.39 | 852 |  | 410 | 248 | 3.4 |  | Cc1cc(-c2sc(NC(=O)N3CCC(C)(C#N)CC3)nc2-c2cccc(C#N)c2C)cc(C)n1 [Example 18, 4-Cyano-N-[4-(3-cyano-2-methyl-phenyl)-5-(2,6-dimethyl-4-pyridyl)thiazol-2-yl]-4-methyl-piperidine-1-carboxamide] | 7.2 |
